A word on the viability: it is a read-out of living cells in per cent, often relative to untreated cells.

This series can be described thus: in vitro. To be noted: human, hela cells, % viability.
On to `NC(=O)C1CN(C(=O)CN2CCCc3ccccc32)c2ccccc2O1` (stereo not drawn) [CBK295163], for which the viability at 28.5 h, 10 µM is 93.4%.
As to `O=C(CCc1cccnc1)Nc1ccc(Oc2ccccc2)cc1` [CBK295168], the viability at 28.5 h, 10 µM was 99.8%.
Under `Cc1cc(C(=O)Nc2ccc(S(=O)(=O)N3CC(C)OC(C)C3)cc2)c2ccccc2n1` (stereo not drawn) [CBK295170] stands 87.4%; under `O=C(O)CCC(NC(=O)c1ccc(-c2ccc(Cl)cc2)s1)C(=O)O` (stereo not drawn) [CBK295171], 92.9%.
Under `O=C(O)CCC(NC(=O)c1ccc(-c2ccc(F)cc2)s1)C(=O)O` (stereo not drawn) [CBK295172] stands 102%; under `CC(C)Cn1c(SCC(=O)N2CCNC2=O)nnc1-c1ccco1` [CBK295175], 106%.
Under `O=C(Nc1ccc(Cl)c(S(=O)(=O)N2CCCC2)c1)c1cnccn1` [CBK295176] stands 87.9%.
Take `Cc1cc(C(=O)CSc2nnc(C(C)C)n2Cc2ccco2)c(C)n1C` [CBK295178]: the viability at 28.5 h, 10 µM amounted to 81.9%.
For `Nc1nnc(SCC(=O)N(Cc2ccccc2F)C2CC2)s1` [CBK295179] the value was 84.3%; for `Cc1nn(Cc2ccc(F)cc2)c2sc(C(=O)NCc3ccc(S(N)(=O)=O)cc3)cc12` [CBK295181], 87%; for `COc1ccc(C2(C)NC(=O)N(CC(=O)Nc3ccc(NC(C)=O)cc3)C2=O)cc1` (stereo not drawn) [CBK295182], 106%.
Under `Cc1ccc(CNC(=O)C2CC(=O)N(c3cccc(C)c3C)C2)cc1` (stereo not drawn) [CBK295183] stands 97.5%.
For `CN(CC(=O)NCc1ccc2c(c1)OCO2)Cc1ccc(Br)s1` [CBK295185] the value was 80.4%; for `CCN(CC)C(=O)c1ccc(NC(=O)CSc2n[nH]c(=O)n2CC2CCCO2)cc1` (stereo not drawn) [CBK295186], 77.6%; for `O=C(C1CN(Cc2nc3ccsc3c(=O)[nH]2)c2ccccc2O1)N1CCOCC1` (stereo not drawn) [CBK295189], 109%.
For `COCCN(Cc1nnc(-c2cccs2)o1)C(C(=O)N1CCOCC1)c1ccccc1` (stereo not drawn) [CBK295190], the viability at 28.5 h, 10 µM was 104%.
With `O=c1c2c3c(sc2ncn1CC(O)COc1ccc(F)cc1)CCC3` (stereo not drawn) [CBK295191], the viability at 28.5 h, 10 µM was found to be 102%.
For `COc1ccc(C(=O)C2CCN(Cc3cccc4cccnc34)CC2)cc1` [CBK295192] the value was 85.3%; for `Cc1nc(-c2ccccc2)ccc1C(=O)Nc1nc(CC(N)=O)cs1` [CBK295195], 96.8%.
For `CCn1c(=O)n(CCC(=O)NC(C(N)=O)c2ccccc2)c2ccccc21` (stereo not drawn) [CBK295196] the value was 89.7%; for `CCc1ccccc1Nc1nnc(SC(C)C(=O)N2CCCC2)s1` (stereo not drawn) [CBK295197], 106%; for `COc1ccc(C(=O)NCC(=O)Nc2ccc(N3CCCCC3)cc2)cc1OC` [CBK295199], 94.3%.
For `COCCn1c(SC)nc2sc(-c3ccccc3)cc2c1=O` [CBK295200] the value was 89.8%.
In the case of `Cc1nc(SCC(N)=O)nc(C)c1CCC(=O)NCc1ccc(F)cc1` [CBK295201], the viability at 28.5 h, 10 µM worked out at 88.5%.
With `CCc1ccc(C(=O)Nc2ccc(NC(C)=O)cc2C(F)(F)F)cc1` [CBK295202], the viability at 28.5 h, 10 µM was determined as 84.1%.
Under `Cc1nc2c3ccccc3nc(SCC(=O)Nc3ccccc3)n2n1` [CBK295205] stands 78.5%; under `CCN(C(=O)C(C)N(C)Cc1c(C)nn(C2CCS(=O)(=O)C2)c1C)c1cccc2ccccc12` (stereo not drawn) [CBK295206], 108%; under `O=C(c1ccc2ncsc2c1)N1CCN(S(=O)(=O)c2ccc(C(F)(F)F)cc2)CC1` [CBK295285], 98.2%.
Under `O=C(O)c1sccc1S(=O)(=O)Nc1ccc(Cc2nc3ccccc3s2)cc1` [CBK295286] stands 92.8%; under `Cc1cccc(Oc2ccccc2NS(=O)(=O)c2ccc3c(c2)N(CC(=O)O)C(=O)CO3)c1` [CBK295287], 92.1%; under `COc1ccc2cc(COC(=O)c3cnc(C)cn3)c(Cl)nc2c1` [CBK295288], 106%.
For `CCOc1ncccc1C(=O)OCc1cc2ccc(OC)cc2nc1Cl` [CBK295289] the value was 78.1%; for `C=CCn1c(Cc2csc(NC(=O)c3ccc([N+](=O)[O-])cc3)n2)n[nH]c1=S` [CBK295290], 96.2%.
In the case of `C=CCn1c(Cc2csc(NC(=O)c3ccc([N+](=O)[O-])cc3Cl)n2)n[nH]c1=S` [CBK295291], the viability at 28.5 h, 10 µM amounted to 76.1%.
Consider `C=CCn1c(Cc2csc(NC(=O)c3ccc(C)cc3)n2)n[nH]c1=S` [CBK295292], for which the viability at 28.5 h, 10 µM was 96.4%.
Regarding `CC(=O)N1CCN(C(=O)c2nn(-c3ccc(F)cc3)c3c2CCCCC3)CC1` [CBK295293], the viability at 28.5 h, 10 µM came out at 107%.
Under `CCNS(=O)(=O)c1ccc(NS(=O)(=O)c2cc(C(=O)O)ccc2C)cc1` [CBK295296] stands 82.8%.
For `CSc1ccc2cc(CSc3nnc(-c4cccs4)n3CC(=O)O)c(Cl)nc2c1` [CBK295298] the value was 91.3%; for `O=C(CSc1nnc(C2CC2)[nH]1)Nc1ccc(SC(F)F)cc1` [CBK295302], 101%.
Under `C=CCn1c(-c2sc(NC(=O)c3cc4ccccc4s3)nc2C)n[nH]c1=S` [CBK295303] stands 94.8%; under `CN(CC(=O)Nc1ccc(Cl)c(C(F)(F)F)c1)C(=O)c1cc(O)nc2ccccc12` [CBK295304], 87.8%.
For `Cc1nc(NC(=O)C2CC(=O)N(c3cccc(C(C)C)c3)C2)sc1-c1n[nH]c(=S)n1C` (stereo not drawn) [CBK295306], the viability at 28.5 h, 10 µM turned out to be 91%.
For `C=CCn1c(Cc2csc(NC(=O)c3ccc(C)c(F)c3)n2)n[nH]c1=S` [CBK295307] the value was 80.6%.
For `COc1ccc(C2CCCN2S(=O)(=O)c2ccccc2[N+](=O)[O-])cc1OC` (stereo not drawn) [CBK295309] the value was 96.1%; for `C=CCn1c(-c2sc(NC(=O)CCc3ccco3)nc2C)n[nH]c1=S` [CBK295312], 89.4%.
For `CCCCOC(=O)c1ccc(NC(=O)c2cc(-c3ccco3)nc3c2c(C)nn3C)cc1` [CBK295313] the value was 103%; for `C=CCn1c(Cc2csc(NC(=O)c3cccc(Cl)c3)n2)n[nH]c1=S` [CBK295314], 98.3%; for `COc1ccc(-c2n[nH]c(=S)n2CC(=O)Nc2nc(-c3ccc(C)cc3C)cs2)cc1` [CBK295316], 96.9%.
In the case of `C=CCn1c(Cc2csc(NC(=O)c3ccc(Cl)cc3)n2)n[nH]c1=S` [CBK295318], the viability at 28.5 h, 10 µM came to 86.7%.
For `CCc1ccc(OCc2nnc(SCC(=O)NCCCC(=O)O)n2CC(C)C)cc1` [CBK295321] the value was 101%.
Under `C=CCn1c(Cc2csc(NC(=O)c3ccc([N+](=O)[O-])c(C)c3)n2)n[nH]c1=S` [CBK295323] stands 87%; under `C=CCn1c(Cc2csc(NC(=O)c3ccc(OC)c(OC)c3)n2)n[nH]c1=S` [CBK295324], 102%; under `CCCn1c(C)cc(-c2csc(NC(=O)CCn3c(-c4cccs4)n[nH]c3=S)n2)c1C` [CBK295326], 90.8%.
For `CCc1noc(C)c1C(=O)Nc1cc(S(=O)(=O)N2CCCCC2)ccc1N(C)C` [CBK295328], the viability at 28.5 h, 10 µM worked out at 85.4%.
Turning to `CN(C)c1ccc(CNC(=O)Cn2nc(C(=O)O)c3ccccc3c2=O)cc1` [CBK295330], the viability at 28.5 h, 10 µM was found to be 105%.
Under `CN(Cc1ccc(N2CCCCC2)cc1)S(=O)(=O)c1ccsc1C(=O)O` [CBK295333] stands 85.5%; under `O=C(Nc1cccc(C=Cc2ccccn2)c1)c1c[nH]nc1-c1ccc(F)cc1` [CBK295335], 78%; under `Cc1ccc2cc(COC(=O)c3ccc(N4CCOCC4)nc3)c(Cl)nc2c1` [CBK295336], 90.5%.
Under `Cc1nc(NC(=O)C2Cc3ccccc3S2)sc1-c1n[nH]c(=S)n1C` (stereo not drawn) [CBK295337] stands 98%.
In the case of `C=CCn1c(Cc2csc(NC(=O)c3ccc(OC(F)F)cc3)n2)n[nH]c1=S` [CBK295338], the viability at 28.5 h, 10 µM was 100%.
For `C=CCn1c(Cc2csc(NC(=O)c3cccc([N+](=O)[O-])c3)n2)n[nH]c1=S` [CBK295339] the value was 106%.
Under `C=CCn1c(Cc2csc(NC(=O)c3ccc(S(C)(=O)=O)cc3)n2)n[nH]c1=S` [CBK295340] stands 97%.
Consider `COc1ccc(C(NC(=O)COc2c(Cl)cc(C(=O)O)cc2Cl)C(C)C)cc1` (stereo not drawn) [CBK295344], for which the viability at 28.5 h, 10 µM is 87.3%.
With `Cc1nc(-c2ccco2)nc2sc(C(=O)N(C)CC3COc4ccccc4O3)c(C)c12` (stereo not drawn) [CBK295347], the viability at 28.5 h, 10 µM came to 105%.
Under `O=C(CC12CC3CC(CC(C3)C1)C2)NCC(=O)Nc1ccc2[nH]c(=O)[nH]c2c1` [CBK295349] stands 85.3%.
Under `O=C(Cn1c2ccccc2c(=O)c2ccccc21)Nc1ccc(-n2cncn2)nc1` [CBK295350] stands 93.1%; under `CCCCn1c(SCC(=O)c2cc(C)n(CCc3ccc(OC)cc3)c2C)n[nH]c1=O` [CBK295351], 96.1%; under `COc1ccc(-c2n[nH]c(=S)n2CC(=O)N2CCN(c3cccc(C)c3)CC2)cc1` [CBK295352], 88.6%.
Under `COc1ccc2cc(Cn3nc(C(=O)O)c4ccccc4c3=O)c(Cl)nc2c1` [CBK295354] stands 88%.
For the compound `COc1ccc2cc(CNC(Cc3ccccc3)c3ccccc3)c(Cl)nc2c1` (stereo not drawn) [CBK295357], the viability at 28.5 h, 10 µM amounted to 93.3%.
For `Cc1nc(COc2ccc(C(=O)Nc3ccc(C(=O)O)cc3C)cc2)cs1` [CBK295360], the viability at 28.5 h, 10 µM was found to be 91.3%.
Under `C=CCn1c(-c2sc(NC(=O)c3ccc(Cl)cc3F)nc2C)n[nH]c1=S` [CBK295361] stands 94.7%; under `Cc1nc(NC(=O)CCN2C(=O)COc3ccccc32)sc1-c1n[nH]c(=S)n1C` [CBK295362], 98.5%; under `CCn1c(=O)c(C=Cc2cccc(Br)c2)nc2cc(C(=O)O)ccc21` [CBK295364], 110%.
Take `CCCn1c(SCC(=O)N2CCN(S(=O)(=O)c3ccc(C)cc3C)CC2)n[nH]c1=O` [CBK295590]: the viability at 28.5 h, 10 µM stood at 104%.

(Values after publication PMC12040169 (PLOS Biology, 2025).)
